Data from ChEMBL document CHEMBL2203017, “STAT6 phosphorylation inhibitors block eotaxin-3 secretion in bronchial epithelial cells” (Bioorg Med Chem, 2012).
Active and inactive are the calls of the source. The rule behind the calls is not given here.

Key:
[1] = biological target: T1, Signal transducer and activator of transcription 6 (Homo sapiens) (UniProt P42226); assay: Inhibition of human N-terminal HA/myc tagged STAT6 expressed in 293-EBNA cells assessed as effect on STAT6 dimer configuration after 1 hr by immunoblot analysis; type: cell-based
T1 sequence (whole entry): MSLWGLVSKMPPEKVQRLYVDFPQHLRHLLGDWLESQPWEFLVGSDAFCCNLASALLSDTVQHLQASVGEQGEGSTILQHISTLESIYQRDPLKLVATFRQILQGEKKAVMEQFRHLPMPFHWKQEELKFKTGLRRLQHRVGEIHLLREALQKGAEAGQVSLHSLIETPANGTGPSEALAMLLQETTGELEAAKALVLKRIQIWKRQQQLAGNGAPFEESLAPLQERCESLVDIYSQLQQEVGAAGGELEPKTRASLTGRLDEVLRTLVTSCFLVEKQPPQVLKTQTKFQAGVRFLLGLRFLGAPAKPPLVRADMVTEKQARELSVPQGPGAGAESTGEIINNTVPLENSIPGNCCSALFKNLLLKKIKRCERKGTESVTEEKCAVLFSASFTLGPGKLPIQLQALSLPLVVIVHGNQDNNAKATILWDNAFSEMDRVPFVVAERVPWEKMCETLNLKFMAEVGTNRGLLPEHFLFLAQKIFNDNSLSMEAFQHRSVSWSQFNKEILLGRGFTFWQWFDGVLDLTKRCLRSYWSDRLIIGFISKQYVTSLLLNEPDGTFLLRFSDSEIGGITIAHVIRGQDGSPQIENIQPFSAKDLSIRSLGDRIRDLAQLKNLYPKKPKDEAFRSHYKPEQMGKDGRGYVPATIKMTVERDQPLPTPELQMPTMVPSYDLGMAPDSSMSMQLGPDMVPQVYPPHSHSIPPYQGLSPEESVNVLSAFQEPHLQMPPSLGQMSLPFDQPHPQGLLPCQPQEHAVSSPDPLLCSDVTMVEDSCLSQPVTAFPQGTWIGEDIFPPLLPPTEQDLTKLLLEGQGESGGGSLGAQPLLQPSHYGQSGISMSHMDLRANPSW

[2] = biological target: T1, Signal transducer and activator of transcription 6 (Homo sapiens); assay: Inhibition of human N-terminal HA/myc tagged STAT6 expressed in 293-EBNA cells assessed as inhibition of IL-4-induced STAT6 inactive dimer-tyrosine phosphorylation after 1 hr by immunoblot analysis; type: cell-based
[3] = biological target: T2, Signal transducer and activator of transcription 6 (Homo sapiens, UniProt P42226); assay: Binding affinity at human recombinant STAT6 by SPR analysis
T2 sequence (P42226 whole entry): T1 sequence (whole entry)

[4] = biological target: T1, Signal transducer and activator of transcription 6 (Homo sapiens); assay: Inhibition of interaction of human recombinant STAT6 with tyrosine phosphorylated IL-4Ralpha peptide at 20 uM after 1 hr by ELISA
[5] = biological target: T1, Signal transducer and activator of transcription 6 (Homo sapiens); assay: Inhibition of IL-4-induced human STAT6 tyrosine phosphorylation expressed in 293-EBNA cells at 10 uM incubated for 1 hr prior to IL-4-induction measured after 6 hrs by Western blot analysis; type: cell-based
[6] = biological target: Signal transducer and activator of transcription 6 (Homo sapiens) (UniProt P42226); assay: Inhibition of human STAT6 expressed in BEAS2B cells assessed as inhibition of IL4-induced STAT6 transcriptional activation
[7] = Cytotoxicity against human 293-EBNA cells assessed as effect on luciferase activity at 10 uM after 1 hr by Renilla reniformis luciferase reporter gene assay; type: cell-based
[8] = biological target: Signal transducer and activator of transcription 6 (Homo sapiens) (UniProt P42226); assay: Inhibition of human STAT6 expressed in BEAS2B cells assessed as […]-induced eotaxin-3 secretion at 10 uM after 24 hrs by ELISA
[9] = biological target: Signal transducer and activator of transcription 6 (Homo sapiens) (UniProt P42226); assay: Inhibition of human STAT6 expressed in BEAS2B cells assessed as […]/TNFalpha-induced eotaxin-3 secretion in presence of TNFalpha at 10 uM after 24 hrs by ELISA
[10] = biological target: Signal transducer and activator of transcription 6 (Homo sapiens) (UniProt P42226); assay: Inhibition of human STAT6 expressed in BEAS2B cells assessed as IL4/TNFalpha-induced eotaxin-3 secretion at 10 uM after 24 hrs by ELISA
[11] = biological target: Signal transducer and activator of transcription 6 (Homo sapiens) (UniProt P42226); assay: Inhibition of human STAT6 expressed in BEAS2B cells assessed as IL4-induced eotaxin-3 secretion after 24 hrs by ELISA
[12] = biological target: Signal transducer and activator of transcription 6 (Homo sapiens) (UniProt P42226); assay: Inhibition of human STAT6 expressed in BEAS2B cells assessed as IL4-induced eotaxin-3 secretion at 10 uM after 24 hrs by ELISA
[13] = biological target: T2, Signal transducer and activator of transcription 6; assay: Inhibition of human STAT6 expressed in 293-EBNA cells assessed as inhibition of IL4-induced STAT6 transcriptional activation after 1 hr by Photinus pylaris luciferase reporter gene assay; type: cell-based
[14] = biological target: T1, Signal transducer and activator of transcription 6 (Homo sapiens); assay: Inhibition of human STAT6 expressed in 293-EBNA cells assessed as inhibition of IL4-induced STAT6 transcriptional activation at 10 uM after 1 hr by Photinus pylaris luciferase reporter gene assay; type: cell-based
[15] = biological target: T1, Signal transducer and activator of transcription 6 (Homo sapiens); assay: Inhibition of human STAT6 expressed in 293-EBNA cells assessed as inhibition of IL4-induced STAT6 transcriptional activation at 10 uM after 1 hr by Renilla reniformis luciferase reporter gene assay; type: cell-based
[16] = Cytotoxicity against human 293-EBNA cells assessed as effect on luciferase activity at 10 uM after 1 hr by Photinus reniformis luciferase reporter gene assay; type: cell-based
[17] = biological target: Tyrosine-protein kinase JAK2 (Homo sapiens) (UniProt O60674); assay: Inhibition of JAK2 up to 10 uM after 30 mins by colorimetric ELISA
Tyrosine-protein kinase JAK2 (Homo sapiens), sequence (O60674 whole entry): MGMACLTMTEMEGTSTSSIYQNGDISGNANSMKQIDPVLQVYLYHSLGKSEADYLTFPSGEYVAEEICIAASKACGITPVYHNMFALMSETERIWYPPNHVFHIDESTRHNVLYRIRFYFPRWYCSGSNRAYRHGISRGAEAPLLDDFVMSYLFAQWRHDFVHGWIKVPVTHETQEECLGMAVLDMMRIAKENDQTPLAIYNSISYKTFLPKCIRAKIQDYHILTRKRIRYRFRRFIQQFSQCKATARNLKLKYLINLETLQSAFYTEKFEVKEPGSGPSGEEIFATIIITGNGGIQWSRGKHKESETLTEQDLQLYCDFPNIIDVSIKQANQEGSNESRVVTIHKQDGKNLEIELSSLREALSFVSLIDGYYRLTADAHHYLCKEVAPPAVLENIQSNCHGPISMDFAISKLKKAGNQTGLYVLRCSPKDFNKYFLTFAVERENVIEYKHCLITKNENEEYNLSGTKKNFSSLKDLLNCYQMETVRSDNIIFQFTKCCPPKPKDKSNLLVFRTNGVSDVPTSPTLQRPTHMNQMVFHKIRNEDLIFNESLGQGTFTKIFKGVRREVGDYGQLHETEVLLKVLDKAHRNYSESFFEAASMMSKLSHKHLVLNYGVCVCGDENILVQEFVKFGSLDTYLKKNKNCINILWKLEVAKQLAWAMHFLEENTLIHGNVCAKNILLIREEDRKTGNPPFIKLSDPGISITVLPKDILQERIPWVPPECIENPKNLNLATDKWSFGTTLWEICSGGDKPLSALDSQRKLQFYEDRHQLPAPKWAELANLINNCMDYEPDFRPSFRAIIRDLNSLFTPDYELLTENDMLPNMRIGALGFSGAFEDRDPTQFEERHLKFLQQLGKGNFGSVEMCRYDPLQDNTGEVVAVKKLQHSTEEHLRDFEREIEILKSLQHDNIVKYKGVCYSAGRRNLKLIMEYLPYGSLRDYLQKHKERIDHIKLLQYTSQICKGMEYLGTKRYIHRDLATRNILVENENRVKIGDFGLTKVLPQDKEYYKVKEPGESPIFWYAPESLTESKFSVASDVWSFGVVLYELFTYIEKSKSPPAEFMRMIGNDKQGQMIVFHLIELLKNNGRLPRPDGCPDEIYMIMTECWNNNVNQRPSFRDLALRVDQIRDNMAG

| SMILES | inhibition [1] | inhibition [2] | Kd [3] | inhibition [4] | inhibition [5] | inhibition [6] | Activity [7] | inhibition [8] | inhibition [9] | inhibition [10] | IC50 [11] | inhibition [12] | IC50 [13] | inhibition [14] | inhibition [15] | Activity [16] | inhibition [17] |
| --- | --- | --- | --- | --- | --- | --- | --- | --- | --- | --- | --- | --- | --- | --- | --- | --- | --- |
| CN(CCc1ccccc1)C(=O)c1csc2c1CCC/C2=N/O | inactive | inactive | 74000 nM | inactive | inactive | – | – | – | – | – | – | – | – | – | – | – | – |
| CC(C)[C@@H](C)NC(=O)c1cc(-c2cc3ccccc3n2C)cc(C(=O)NCCc2ccccn2)n1 | inactive | Active | 656 nM | inactive | Active | Active | Non-toxic | Active | Active | Active | 2740 nM | Active | 2700 nM | Active | Active | Non-toxic | inactive |
| CC(C)[C@@H](C)NC(=O)c1cc(-c2cc3ccccc3s2)cc(C(=O)NCCc2ccccn2)n1 | inactive | Active | 701 nM | inactive | Active | – | Non-toxic | – | – | – | – | – | 3200 nM | Active | Active | Non-toxic | inactive |
